Tests used:
Type in all cases: cell-based
SN12C = experiment: NCI60 growth inhibition, SN12C; settings: Renal Cancer
Protocol: (§1) Representative compounds were tested in 60 cell lines (NCI60) at the National Cancer Institute, Developmental Therapeutics Program.
(§2) Representative compounds were tested in a panel of 60 cancer cells (NCI 60) at the National Cancer Institute. Growth inhibition are shown in table 2, table 3, table 4, table 5, and FIG. 1, FIG. 2, FIG. 3, FIG. 4, FIG. 5.

MOLT-4 = experiment: NCI60 growth inhibition, MOLT-4; settings: Leukemia
Protocol: as §1, §2

HCT-15 = experiment: NCI60 growth inhibition, HCT-15; settings: Colon Cancer; also: test concentration or dose not given here
Protocol: as §1, §2

SNB-19 = experiment: NCI60 growth inhibition, SNB-19; settings: CNS Cancer; also: test concentration or dose not given here
Protocol: as §1, §2

M14 = experiment: NCI60 growth inhibition, M14; settings: Melanoma
Protocol: as §1, §2

LOX IMVI = experiment: NCI60 growth inhibition, LOX IMVI; settings: Melanoma
Protocol: as §1, §2

UACC-62 = experiment: NCI60 growth inhibition, UACC-62; settings: Melanoma; also: test concentration or dose not given here
Protocol: as §1, §2

OVCAR-4 = experiment: NCI60 growth inhibition, OVCAR-4; settings: Ovarian Cancer; also: test concentration or dose not given here
Protocol: as §1, §2

HS 578T = experiment: NCI60 growth inhibition, HS 578T; settings: Breast Cancer
Protocol: as §1, §2

RXF 393 = experiment: NCI60 growth inhibition, RXF 393; settings: Renal Cancer
Protocol: as §1, §2

SK-OV-3 = experiment: NCI60 growth inhibition, SK-OV-3; settings: Ovarian Cancer
Protocol: as §1, §2

K-562 = experiment: NCI60 growth inhibition, K-562; settings: Leukemia
Protocol: as §1, §2

OVCAR-5 = experiment: NCI60 growth inhibition, OVCAR-5; settings: Ovarian Cancer
Protocol: as §1, §2

SK-MEL-2 = experiment: NCI60 growth inhibition, SK-MEL-2; settings: Melanoma; also: test concentration or dose not given here
Protocol: as §1, §2

SF-539 = experiment: NCI60 growth inhibition, SF-539; settings: CNS Cancer
Protocol: as §1, §2

ACHN = experiment: NCI60 growth inhibition, ACHN; settings: Renal Cancer
Protocol: as §1, §2

SK-MEL-28 = experiment: NCI60 growth inhibition, SK-MEL-28; settings: Melanoma
Protocol: as §1, §2

MALME-3M = experiment: NCI60 growth inhibition, MALME-3M; settings: Melanoma
Protocol: as §1, §2

OVCAR-3 = experiment: NCI60 growth inhibition, OVCAR-3; settings: Ovarian Cancer
Protocol: as §1, §2

KM12 = experiment: NCI60 growth inhibition, KM12; settings: Colon Cancer; also: test concentration or dose not given here
Protocol: as §1, §2

NCI-H322M = experiment: NCI60 growth inhibition, NCI-H322M; settings: Non-Small Cell Lung Cancer
Protocol: as §1, §2

T-47D = experiment: NCI60 growth inhibition, T-47D; settings: Breast Cancer
Protocol: as §1, §2

NCI-H23 = experiment: NCI60 growth inhibition, NCI-H23; settings: Non-Small Cell Lung Cancer
Protocol: as §1, §2

A498 = experiment: NCI60 growth inhibition, A498; settings: Renal Cancer; also: test concentration or dose not given here
Protocol: as §1, §2

PC-3 = experiment: NCI60 growth inhibition, PC-3; settings: Prostate Cancer
Protocol: as §1, §2

HL-60(TB) = experiment: NCI60 growth inhibition, HL-60(TB); settings: Leukemia
Protocol: as §1, §2

HCC-2998 = experiment: NCI60 growth inhibition, HCC-2998; settings: Colon Cancer
Protocol: as §1, §2

MDA-MB-468 = experiment: NCI60 growth inhibition, MDA-MB-468; settings: Breast Cancer; also: test concentration or dose not given here
Protocol: as §1, §2

MDA-MB-231/ATCC = experiment: NCI60 growth inhibition, MDA-MB-231/ATCC; settings: Breast Cancer
Protocol: as §1, §2

HCT-116 = experiment: NCI60 growth inhibition, HCT-116; settings: Colon Cancer
Protocol: as §1, §2

DU-145 = experiment: NCI60 growth inhibition, DU-145; settings: Prostate Cancer
Protocol: as §1, §2

SR = experiment: NCI60 growth inhibition, SR; settings: Leukemia
Protocol: as §1, §2

NCI-H460 = experiment: NCI60 growth inhibition, NCI-H460; settings: Non-Small Cell Lung Cancer
Protocol: as §1, §2

NCI-H522 = experiment: NCI60 growth inhibition, NCI-H522; settings: Non-Small Cell Lung Cancer
Protocol: as §1, §2

TK-10 = experiment: NCI60 growth inhibition, TK-10; settings: Renal Cancer
Protocol: as §1, §2

786-0 = experiment: NCI60 growth inhibition, 786-0; settings: Renal Cancer
Protocol: as §1, §2

U251 = experiment: NCI60 growth inhibition, U251; settings: CNS Cancer
Protocol: as §1, §2

UACC-257 = experiment: NCI60 growth inhibition, UACC-257; settings: Melanoma; also: test concentration or dose not given here
Protocol: as §1, §2

IGROV1 = experiment: NCI60 growth inhibition, IGROV1; settings: Ovarian Cancer
Protocol: as §1, §2

EKVX = experiment: NCI60 growth inhibition, EKVX; settings: Non-Small Cell Lung Cancer
Protocol: as §1, §2

UO-31 = experiment: NCI60 growth inhibition, UO-31; settings: Renal Cancer
Protocol: as §1, §2

HT29 = experiment: NCI60 growth inhibition, HT29; settings: Colon Cancer
Protocol: as §1, §2

HOP-62 = experiment: NCI60 growth inhibition, HOP-62; settings: Non-Small Cell Lung Cancer; also: test concentration or dose not given here
Protocol: as §1, §2

COLO 205 = experiment: NCI60 growth inhibition, COLO 205; settings: Colon Cancer
Protocol: as §1, §2

NCI-H226 = experiment: NCI60 growth inhibition, NCI-H226; settings: Non-Small Cell Lung Cancer; also: test concentration or dose not given here
Protocol: as §1, §2

SF-268 = experiment: NCI60 growth inhibition, SF-268; settings: CNS Cancer; also: test concentration or dose not given here
Protocol: as §1, §2

SK-MEL-5 = experiment: NCI60 growth inhibition, SK-MEL-5; settings: Melanoma
Protocol: as §1, §2

RPMI-8226 = experiment: NCI60 growth inhibition, RPMI-8226; settings: Leukemia
Protocol: as §1, §2

NCI/ADR-RES = experiment: NCI60 growth inhibition, NCI/ADR-RES; settings: Ovarian Cancer
Protocol: as §1, §2

SNB-75 = experiment: NCI60 growth inhibition, SNB-75; settings: CNS Cancer; also: test concentration or dose not given here
Protocol: as §1, §2

CAKI-1 = experiment: NCI60 growth inhibition, CAKI-1; settings: Renal Cancer; also: test concentration or dose not given here
Protocol: as §1, §2

MCF7 = experiment: NCI60 growth inhibition, MCF7; settings: Breast Cancer
Protocol: as §1, §2

CCRF-CEM = experiment: NCI60 growth inhibition, CCRF-CEM; settings: Leukemia
Protocol: as §1, §2

A549/ATCC = experiment: NCI60 growth inhibition, A549/ATCC; settings: Non-Small Cell Lung Cancer
Protocol: as §1, §2

SF-295 = experiment: NCI60 growth inhibition, SF-295; settings: CNS Cancer; also: test concentration or dose not given here
Protocol: as §1, §2

SW-620 = experiment: NCI60 growth inhibition, SW-620; settings: Colon Cancer; also: test concentration or dose not given here
Protocol: as §1, §2

HOP-92 = experiment: NCI60 growth inhibition, HOP-92; settings: Non-Small Cell Lung Cancer
Protocol: as §1, §2

MDA-MB-435 = experiment: NCI60 growth inhibition, MDA-MB-435; settings: Melanoma
Protocol: as §1, §2

## Cc1ccc2c(n1)C(=O)C(Cl)=C(Nc1ccc(N3CCN(C)CC3)cc1)C2=O [Compound 13, 7-chloro-2-methyl-6-((4-(4-methylpiperazin-1-yl)phenyl)amino)quinoline-5,8-dione]
SN12C
  Growth inhibition (% control) GIPRCNT: −88.5465 % control
MOLT-4
  Growth inhibition (% control) GIPRCNT: −25.588 % control
HCT-15
  Growth inhibition (% control) GIPRCNT: 70.44 % control
SNB-19
  Growth inhibition (% control) GIPRCNT: 94.6 % control
M14
  Growth inhibition (% control) GIPRCNT: 73.83 % control
LOX IMVI
  Growth inhibition (% control) GIPRCNT: −95.4404 % control
UACC-62
  Growth inhibition (% control) GIPRCNT: −49.3593 % control
OVCAR-4
  Growth inhibition (% control) GIPRCNT: −100 % control
HS 578T
  Growth inhibition (% control) GIPRCNT: 58 % control
RXF 393
  Growth inhibition (% control) GIPRCNT: 62.78 % control
SK-OV-3
  Growth inhibition (% control) GIPRCNT: 89.88 % control
K-562
  Growth inhibition (% control) GIPRCNT: −12.2778 % control
OVCAR-5
  Growth inhibition (% control) GIPRCNT: −7.548 % control
SK-MEL-2
  Growth inhibition (% control) GIPRCNT: 68.36 % control
SF-539
  Growth inhibition (% control) GIPRCNT: −24.5048 % control
ACHN
  Growth inhibition (% control) GIPRCNT: −93.75 % control
SK-MEL-28
  Growth inhibition (% control) GIPRCNT: 30.32 % control
MALME-3M
  Growth inhibition (% control) GIPRCNT: −75.4481 % control
OVCAR-3
  Growth inhibition (% control) GIPRCNT: −100 % control
KM12
  Growth inhibition (% control) GIPRCNT: 92.08 % control
NCI-H322M
  Growth inhibition (% control) GIPRCNT: 97.35 % control
T-47D
  Growth inhibition (% control) GIPRCNT: −61.1209 % control
NCI-H23
  Growth inhibition (% control) GIPRCNT: 16.65 % control
A498
  Growth inhibition (% control) GIPRCNT: 100.8258 % control
PC-3
  Growth inhibition (% control) GIPRCNT: 68.66 % control
HL-60(TB)
  Growth inhibition (% control) GIPRCNT: −46.6759 % control
HCC-2998
  Growth inhibition (% control) GIPRCNT: 95.31 % control
MDA-MB-468
  Growth inhibition (% control) GIPRCNT: −84.6413 % control
MDA-MB-231/ATCC
  Growth inhibition (% control) GIPRCNT: −62.773 % control
HCT-116
  Growth inhibition (% control) GIPRCNT: −64.939 % control
DU-145
  Growth inhibition (% control) GIPRCNT: −18.6864 % control
SR
  Growth inhibition (% control) GIPRCNT: −5.054 % control
NCI-H460
  Growth inhibition (% control) GIPRCNT: 97.22 % control
NCI-H522
  Growth inhibition (% control) GIPRCNT: −63.7561 % control
TK-10
  Growth inhibition (% control) GIPRCNT: 100.0838 % control
786-0
  Growth inhibition (% control) GIPRCNT: 52.18 % control
U251
  Growth inhibition (% control) GIPRCNT: 8.466 % control
UACC-257
  Growth inhibition (% control) GIPRCNT: 57.23 % control
IGROV1
  Growth inhibition (% control) GIPRCNT: −83.5269 % control
EKVX
  Growth inhibition (% control) GIPRCNT: −81.7903 % control
UO-31
  Growth inhibition (% control) GIPRCNT: −97.3532 % control
HT29
  Growth inhibition (% control) GIPRCNT: 66.44 % control
HOP-62
  Growth inhibition (% control) GIPRCNT: 63.65 % control
COLO 205
  Growth inhibition (% control) GIPRCNT: 82.4617 % control
NCI-H226
  Growth inhibition (% control) GIPRCNT: 105.4813 % control
SF-268
  Growth inhibition (% control) GIPRCNT: 77.72 % control
SK-MEL-5
  Growth inhibition (% control) GIPRCNT: 10.39 % control
RPMI-8226
  Growth inhibition (% control) GIPRCNT: −32.551 % control
NCI/ADR-RES
  Growth inhibition (% control) GIPRCNT: 27.61 % control
SNB-75
  Growth inhibition (% control) GIPRCNT: −53.8363 % control
CAKI-1
  Growth inhibition (% control) GIPRCNT: −100 % control
MCF7
  Growth inhibition (% control) GIPRCNT: −61.9194 % control
CCRF-CEM
  Growth inhibition (% control) GIPRCNT: −6.237 % control
A549/ATCC
  Growth inhibition (% control) GIPRCNT: 97.64 % control
SF-295
  Growth inhibition (% control) GIPRCNT: 99.36 % control
SW-620
  Growth inhibition (% control) GIPRCNT: −69.7878 % control
HOP-92
  Growth inhibition (% control) GIPRCNT: −86.301 % control
MDA-MB-435
  Growth inhibition (% control) GIPRCNT: −99.1118 % control

Reference: US20220162167A1, “SUBSTITUTED BICYCLIC AND TETRACYCLIC QUINONES AND USE THEREOF AS ANTI-CANCER AGENTS” (THE REGENTS OF THE UNIVERSITY OF MICHIGAN, priority 2019, published 2022)
